US6617332B1, “Tan-1057 derivatives” (Bayer Aktiengesellschaft, priority 1998, dated 2003)
In brackets after ≈: the same amount, converted by molar mass. Counter-ions that a name gives are not always drawn. Like-named read-outs stand apart in the source and are kept apart here.

Key:
[1] = test system: S. aureus 133; test: Determination of the minimum inhibitory concentration (MIC), liquid dilution test; format: cell-based; conditions: Staphylococcus aureus
Description: (§1) The MIC was determined using the liquid dilution test. Overnight cultures of the test germs (S. aureus 133) in Isosensitest bouillon were diluted 1:1000 with foetal calf serum (FCS) or Isosensitest bouillon and incubated with dilutions of the test substances (successive dilutions of 1:2).
The cultures were incubated at 37° C. for 18-24 hours. In each case the lowest concentration of substance at which no visible bacterial growth took place, was defined as MIC.

[2] = test system: α2-macroglobulin secretion of HepG2 cells; test: Functionality of HepG2 cells: secretion of α2-macroglobulin (ELISA); format: cell-based; conditions: human, HepG2 liver cells, HepG2, 40-48 hours, highest test concentration 10 μg/ml
Description: (§2) The vitality and functionality of human HepG2 liver cells were examined after treatment with exemplary compounds. In each case 2×10^4−1×10^5 cells were incubated in RPMI 1640 (Whittacker) with 10% heat-inactivated foetal calf serum (Gibco) at 37° C. for 40-48 hours. The incubation volume of 200 μl contained the test substances in concentrations of 10, 2 and 0.4 μg/ml.
(§3) The functionality of the HepG2 cells was examined by measuring the secretion of apo B100 and α2-macroglobulin after treatment. To this end, the protein content of the culture supernatants was determined by ELISA after incubation for 40-48 hours. Apo B100 was bound using rabbit ahLDL (1 mg/ml) and quantified using peroxidase-conjugated monoclonal antibodies (ahLDL_POD), with addition of the substrate TMB/H2O2. The optical density was measured at 450 nm.
To determine α2-macroglobulin, the ELISA system from Biodesign (Art.No. H 45205M) was used. Quantification was likewise carried out using the substrate TMB/H2O2, and measuring the optical density at 450 nm.

[3] = Vitality of HepG2 cells (Alamar Blue fluorescence); format: cell-based; conditions: human, HepG2 liver cells, HepG2, 40-48 hours, highest test concentration 10 μg/ml
Description: as §2
The vitality was examined after addition of 20 μl Alamar Blue (Biosource, Art. No. DAL 1100) by measuring the fluorescence (excitation: 544 nm, emission: 590 nm).

[4] = Neutral Red vitality test using J774.A1 cells; format: cell-based, murine; conditions: mouse; J774.A1 murine macrophage cells, 72 hours with substance; vitality reduced to 50% of untreated control
Description: (§4) Compatibility tests of the exemplary compounds were carried out using cultures of eukaryotic cells. Hepatocytes (HepG2) and murine macrophage cells (J774.A1) were used as indicator for organ-specific toxicity. The murine macrophage cell line used is a particularly sensitive indicator for toxic effects.
(§5) In each case 1.2×10^4 cells were incubated at 37° C. for 24 hours. Test substances were added at different concentrations, and the cells were incubated for another 72 hours. The cells were then treated with 50 μl of Neutral Red solution (Sigma, No. N 2889) for 2 hours, washed with PBS medium and denaturated using an ethanol/glacial acetic acid mixture.
(§6) The cultures were measured in an Elisa reader at 540 nm and 630 nm. The IC50 values were extrapolated and indicate at which concentration the vitality of the cells, measured by the uptake of Neutral Red, is reduced to 50%, compared to untreated control cells.

[5] = test system: apo B100 secretion of HepG2 cells; test: Functionality of HepG2 cells: secretion of apo B100 (ELISA); format: cell-based; conditions: human, HepG2 liver cells, HepG2, 40-48 hours, highest test concentration 10 μg/ml
Description: as §2, §3

[6] = test system: S. aureus 133; test: Test of antibacterial activity in vivo (infected mice, survival); conditions: mice infected i.p. with 1×10^6 S. aureus 133 in 5% mucine; intravenous administration 30 minutes after infection
Description: Mice were infected with 1×10^6 bacteria of the strain S. aureus 133 in 5% mucine (i.p.) and treated by intravenous administration of the test substances 30 minutes after the infection. Without treatment, all infected animals died. The therapeutic doses for TAN 1057 A,B and the compound of Example 4 at which all infected animals survived (=ED100) was 1 mg/kg for both substances.

[7] = test system: TAN 1057 A,B-resistant S. aureus 133; test: MIC test with TAN 1057 A,B-resistant isolates from stepwise selection; format: cell-based; conditions: Staphylococcus aureus
Description: as §1
Bacteria of the strain S. aureus 133 were incubated with different concentrations of TAN 1057 A,B for 24 hours. […] This process was repeated for several days, selecting step by step bacteria having increased resistance to TAN 1057 A,B. The MIC of highly resistant S. aureus 133 bacteria was >100 μg/ml (initial MIC: <0.1 μg/ml). The bacteria from this selection series, having an MIC of <0.1, 0.8, 25, 100 and >100 μg/ml, were used for tests. It is thus possible to identify TAN 1057 A,B derivatives having antibacterial activity against TAN 1057 A,B-resistant cells.
The S. aureus 133 isolates with medium and high resistance to TAN 1057 A,B were tested in comparison to the derivatives of the invention.

[8] = Acute toxicity in mice (LD50); conditions: mouse, in vivo, ip, intraperitoneal administration, dose at which 50% of treated mice survive
Description: The acute toxicity of the substances was determined by determining the dose at which 50% of the treated mice survive (=LD50). Following intraperitoneal administration of the test substances, the LD50 for TAN 1057 A,B was 100 mg/kg. The LD50 for the compound of Example 4 was >400 mg/kg.

[9] = test system: J774.A1 cells; test: Neutral Red vitality test using J774.A1 cells; format: cell-based, murine; conditions: compatibility tests with eukaryotic cells: hepatocytes (HepG2) and murine macrophage cells (J774.A1)
Description: as §4, §5, §6

[10] = S. aureus 133, overnight culture diluted 1:1000 with foetal calf serum, 37° C., 18-24 hours, lowest concentration without visible growth, read-out: MIC in FCS (S.aureus; μg/ml)
[11] = read-out: MIC, isolate with medium resistance to TAN 1057 A,B

In the case of `CCN(C(=O)C[C@@H](N)CCCNC(=N)N)C1CNC(NC(N)=O)=NC1=O` (stereo partly drawn) (as salt: hydrochloride) [Example 15, (3′S,5R,S)-5-[N-Ethyl-N-(3′-amino-6′-guanidinohexanoyl)amino]-5,6-dihydro-2-ureido-4(1H)-pyrimidone Dihydrochloride], the melting point is reported as 170 to 172 °C.
`CN(C(=O)C[C@@H](N)CCCCNC(=N)N)C1CNC(NC(N)=O)=NC1=O` (stereo partly drawn) [Example 1, (3′S,5R,S)-5-[N-Methyl-N-(3′-amino-7′-guanidinoheptanoyl)amino]-5,6-dihydro-2-ureido-4(1H)-pyrimidone Dihydrochloride] showed an MIC [1, 10] of 0.2 µg/mL, an IC50 [2] of over 10 µg/mL and an IC50 [3] of over 10 µg/mL. It also gave an IC50 at 72 h [4] of 3 µg/mL and an IC50 [5] of over 10 µg/mL.
With `CN(C(=O)CC(N)c1cccc(NC(=N)N)c1)C1CNC(NC(N)=O)=NC1=O` (stereo not drawn) [Example 2, (3′RS,5RS)-5-{N-Methyl-N-[3′-amino-3′-(3-guanidylphenyl)propionyl]amino}-5,6-dihydro-2-ureido-4(1H)-pyrimidone Dihydrochloride] the MIC [1, 10] was 50 µg/mL, the IC50 [2] was over 10 µg/mL and the IC50 [3] was over 10 µg/mL. It also gave an IC50 at 72 h [4] of 6 µg/mL and an IC50 [5] of over 10 µg/mL.
Work on `CN(C(=O)C[C@@]1(N)C[C@H]1CCNC(=N)N)C1CNC(NC(N)=O)=NC1=O` (stereo partly drawn) [Example 3, 5-{N-Methyl-N-2′-[1-amino-2-(2-guanidinoethyl)cyclopropyl]acetamino}-5,6-dihydro-2-ureido-4(1H)-pyrimidone Dihydrochloride] yielded an MIC [1, 10] of 100 µg/mL and an IC50 at 72 h [4] of 40 µg/mL.
With `CN(C(=O)C[C@@H](N)CCCN)C1CNC(NC(N)=O)=NC1=O` (stereo partly drawn) [Example 4, (3′S,5R,S)-5-[N-Methyl-N-(3′,6′-diaminohexanoyl)amino]-5,6-dihydro-2-ureido-4(1H)-pyrimidone Dihydrochloride] the “ED100 (therapeutic dose at which all infected animals survived)” value [6] was 1 mg/kg, the MIC [7, 11] was 0.2 µg/mL and the MIC [1, 10] was 0.4 µg/mL. It also gave an IC50 at 72 h [4] of 25 µg/mL and an LD50 [8] of over 400 mg/kg.
Work on `CN(C(=O)C[C@@H](N)CCCCN)C1CNC(NC(N)=O)=NC1=O` (stereo partly drawn) [Example 5, (3′S,5R,S)-5-[N-Methyl-N-(3′,7′-diaminoheptanoyl)amino]-5,6-dihydro-2-ureido-4(1H)-pyrimidone Dihydrochloride] yielded an MIC [1, 10] of 0.1 µg/mL and an IC50 at 72 h [4] of 6 µg/mL.
With `CNC(=N)NCCC[C@H](N)CC(=O)N(C)C1CNC(NC(N)=O)=NC1=O` (stereo partly drawn) [Example 6, (3′S,5R,S)-5-{N-Methyl-N-[3′-amino-6′-(N′-methylguanidino)hexanoyl]amino}-5,6-dihydro-2-ureido-4(1H)-pyrinidone Dihydrochloride] the MIC [1, 10] was 0.8 µg/mL and the IC50 at 72 h [4] was 5.5 µg/mL.
`CCNCCC[C@H](N)CC(=O)N(C)C1CNC(NC(N)=O)=NC1=O` (stereo partly drawn) [Example 7, (3′S,5R,S)-5-[N-Methyl-N-(3′-amino-6′-ethylaminohexanoyl)amino]-5,6-dihydro-2-ureido-4(1H)-pyrimidone Dihydrochloride] gave an MIC [1, 10] of 0.8 µg/mL and an IC50 at 72 h [4] of 50 µg/mL.
With `CN(C(=O)C[C@@H](N)CCN)C1CNC(NC(N)=O)=NC1=O` (stereo partly drawn) [Example 8, (3′S,5R,S)-5-[N-Methyl-N-(3′,5′-diaminopentanoyl)amino]-5,6-dihydro-2-ureido-4(1H)-pyrimidone Dihydrochloride] the MIC [1, 10] was 1.6 µg/mL and the IC50 at 72 h [4] was 1.8 µg/mL.
In the case of `N=C(N)NCCC[C@H](N)CC(=O)NC1CNC(NC(N)=O)=NC1=O` (stereo partly drawn) [Example 9, (3′R,5R,S)-5-[N-(3′-amino-6′-guanidinohexanoyl)amino]-5,6-dihydro-2-ureido-4(1H)-pyrimidone Dihydrochloride], the MIC [1, 10] is reported as 1.6 µg/mL.
Compound `CCN(C(=O)C[C@@H](N)CCCN)C1CNC(NC(N)=O)=NC1=O` (stereo partly drawn) [Example 10, (3′S,5R,S)-5-[N-Ethyl-N-(3′,6′-diaminohexanoyl)amino]-5,6-dihydro-2-ureido-4(1H)-pyrimidone Dihydrochloride] has an MIC [1, 10] of 3.2 µg/mL.
Work on `CN(C(=O)CC[C@@H](N)CCCN)C1CNC(NC(N)=O)=NC1=O` (stereo partly drawn) [Example 11, (4′S,5R,S)-5-[N-Methyl-N-(4′,7′-diaminoheptanoyl)amino]-5,6-dihydro-2-ureido-4(1H)-pyrimidone Dihydrochloride] yielded an MIC [1, 10] of 3.2 µg/mL.
`CN(C(=O)C[C@H](N)CCCN)C1CNC(NC(N)=O)=NC1=O` (stereo partly drawn) [Example 12, (3′R,5R,S)-5-[N-Methyl-N-(3′,6′-diaminohexanoyl)amino]-5,6-dihydro-2-ureido-4(1H)-pyrimidone Dihydrochloride] showed an MIC [1, 10] of 6.3 µg/mL.
With `CN(C(=O)C[C@@H](N)CCC(N)=O)C1CNC(NC(N)=O)=NC1=O.Cl` (stereo partly drawn) [Example 13, (3′R,5R,S)-5-[N-Methyl-N-(3′-amino-5′-carbamoyl-pentanoyl)amino]-5,6-dihydro-2-ureido-4(1H)-pyrimidone Dihydrochloride] the MIC [1, 10] was 12.5 µg/mL.
`NCCC[C@H](N)CC(=O)NC1CNC(NC(N)=O)=NC1=O` (stereo partly drawn) [Example 14, (3′R,5R,S)-5-[N-(3′,6′-Diaminohexanoyl)amino]-5,6-dihydro-2-ureido-4(1H)-pyrimidone Dihydrochloride] gave an MIC [1, 10] of 12.5 µg/mL.
With `CCN(C(=O)C[C@@H](N)CCCNC(=N)N)C1CNC(NC(N)=O)=NC1=O` (stereo partly drawn) [Example 15, (3′S,5R,S)-5-[N-Ethyl-N-(3′-amino-6′-guanidinohexanoyl)amino]-5,6-dihydro-2-ureido-4(1H)-pyrimidone Dihydrochloride] the MIC [1, 10] was 100 µg/mL.
`COC(=O)NCCC[C@H](N)CC(=O)N(C)C1CNC(NC(N)=O)=NC1=O.Cl` (stereo partly drawn) [Example 16, (3′S,5R,S)-5-[N-Methyl-N-(3′-amino-6′-methoxycarbonylaminohexanoyl)-amino]-5,6-dihydro-2-ureido-4(1H)-pyrimidone Hydrochloride] gave an MIC [1, 10] of 100 µg/mL.
`CN(C(=O)CC(N)CCCCCN)C1CNC(NC(N)=O)=NC1=O` [Example 17, (3′R,S,5R,S)-5-[N-Methyl-N-(3′,8′-diaminooctanoyl)amino]-5,6-dihydro-2-ureido-4(1H)-pyrimidone Dihydrochloride] showed an MIC [1, 10] of 6.3 µg/mL.
`CN(C(=O)CC(N)CCC#N)C1CNC(NC(N)=O)=NC1=O.Cl` [Example 18, (3′R,S,5R,S)-5-[N-Methyl-N-(3′-amino-5′-cyanopentanoyl)amino]-5,6-dihydro-2-ureido-4(1H)-pyrimidone Hydrochloride] gave an MIC [1, 10] of 12.5 µg/mL.
In the case of `CN(C(=O)C[C@@H](N)CNC(=N)N)C1CNC(NC(N)=O)=NC1=O` (stereo partly drawn) [TAN 1057 A,B, reference compound], the “ED100 (therapeutic dose at which all infected animals survived)” value [6] is reported as 1 mg/kg, the MIC ([7]; read-out: MIC of highly resistant S. aureus 133 bacteria) is reported as over 100 µg/mL and the MIC [7, 11] is reported as 0.8 µg/mL (≈ 2.44 µM). The MIC [1, 10] was 0.1 µg/mL (≈ 0.305 µM), the MIC ([1]; S. aureus 133 before selection with TAN 1057 A,B, read-out: initial MIC) was under 0.1 µg/mL and the IC50 [2] was 7 µg/mL (≈ 21.4 µM). The “toxicity (in words)” value [9] was “pronounced toxicity in the liver and cells of the immune system”, the IC50 at 72 h [4] was 0.25 µg/mL (≈ 0.764 µM) and the LD50 [8] was 100 mg/kg.
